Several values for one entry are separate records, joined by “and”; a condition that tells them apart may be missing. Identical values can stand only once. A value given as a limit tells only on which side of the number the result lay.

The assay concerns S. Typhi PhoP-promoter GFP reporter, fluorescence, 4 h. Description: PhoP regulon inhibitor project modified counter assay, GFP fluorescence readout, dose response (AID 1985).
The term IC50 denotes the concentration at which inhibition is half-maximal. As to `O=C(Nc1ccc(-c2nc3ccccc3[nH]2)cc1)c1ccco1`, the IC50 was 87 µM.

On to `O=C(Cc1ccc([N+](=O)[O-])cc1)N/N=C/c1ccc([N+](=O)[O-])o1`, for which the IC50 was 13.1 µM. As for `Cc1ccc2nc(/C(C#N)=C\c3ccc([N+](=O)[O-])o3)[nH]c2c1`, the IC50 is 23.3 µM. `O=C(C[n+]1ccc(-c2ccccc2)cc1)Nc1ccc([N+](=O)[O-])cc1`: the IC50 is 27.3 µM. Regarding `CCc1ccc(-c2nn(-c3ccccc3)cc2CSC(=N)N)cc1`, the IC50 is 34.1 µM. On to `COc1cc(C)c(Cc2cnc(N)nc2N)cc1OC`, for which the IC50 was 2.4 µM. For the molecule `Cc1ccc(NC(=O)CS(=O)CC(=O)Nc2ccccc2-c2ccc(C)o2)cc1` (configuration not stated), the IC50 was 66.8 µM. In the case of `Clc1ccc(CN2CCc3c([nH]c4ccccc34)C2)cc1Cl`, the IC50 is 48.5 µM. With `COc1ccc(C(=O)NC(=S)NNC(=O)c2cnccn2)cc1`, the IC50 was 80.5 µM. `Nc1nonc1C(=O)N/N=C/c1cc(Br)ccc1O`: the IC50 is 12.7 µM.

Turning to `CN1CCN(C2=Cc3cc(Cl)ccc3Sc3cc(F)ccc32)CC1`, the IC50 was 137 µM.

`CCOC(=O)N1CCN(CCC(=O)c2ccc(Cl)cc2)CC1`: the IC50 is 108 µM.

Regarding `Nc1nc2ccccc2n1CCOc1ccccc1Cl`, the IC50 is 63.1 µM. As for `Oc1ccc(C[C@@H]2CNCCN2CCC23CC4CC(CC(C4)C2)C3)cc1`, the IC50 is 78.9 µM. Take `O=C(N/N=C/c1cccs1)c1ccc2nc[nH]c2c1`: the IC50 is 136 µM. For the molecule `O=C(N/N=C/c1cc([N+](=O)[O-])ccc1O)c1cccc2cc[nH]c12`, the half-maximal inhibitory concentration (IC50) is 91.6 µM. For `COc1ccc(-c2cnc(NCc3cc4c(cc3[N+](=O)[O-])OCO4)n2C)cc1`, the IC50 was 107 µM. In the case of `Oc1c(C(Nc2ccccn2)c2cccnc2)cc(Cl)c2cccnc12` (configuration not stated), the IC50 was 33.9 µM.

Take `CCNC(=O)Oc1ccc[nH]c1=O`: the IC50 is 99.4 µM.

For the molecule `COc1ccc(C(=O)NNC(=S)NC(=O)c2ccccc2)cc1`, the IC50 is 82.5 µM. In the case of `O=[N+]([O-])c1cc([N+](=O)[O-])c2cccnc2c1Oc1ccccc1O`, the IC50 was 88 µM. Take `O=C(N/N=C/c1cc([N+](=O)[O-])ccc1O)C1CC1`: the IC50 is 14.9 µM. To `COc1cc(CNCCc2ccccc2)cc(Cl)c1OCc1ccccc1` belongs 78.9 µM; to `CCc1ccc(CNCc2ccc(OCC(O)CN(C)Cc3ccccc3)cc2)nc1` (configuration not stated), 146 µM.

As to `COc1ccc(Cl)cc1S(=O)(=O)N1CCN(C(=O)c2ccco2)CC1`, the half-inhibitory concentration (IC50) is 145 µM. Turning to `CCN1CCN(C(=O)c2cc3cc(F)ccc3[nH]2)CC1`, the IC50 is 97.5 µM. To `CC1(C)N=C(N)NC(Nc2ccc(Br)cc2)=N1` belongs 76.4 µM; to `Cc1ccc(C(=O)N/C(=C\c2ccc(-c3ccc(Br)cc3)o2)C(=O)NCCCN(C)C)cc1`, 66.3 µM. Take `CCCCCCCCCCOC(=O)Cn1c(COc2cccc(OC)c2)[n+](C)c2ccccc21`: the IC50 is 18.1 µM.

Consider `FC(F)Oc1ccc(NC(=S)NCc2nc3ccccc3[nH]2)cc1`, for which the IC50 is 33.7 µM. Regarding `CCOc1ccc(Nc2nc(N)c3ccccc3n2)cc1`, the IC50 was 44.5 µM. `COc1ccc(Nc2cc(C)c3c(O)cccc3n2)cc1`: the IC50 is 34.4 µM.

As to `O=C(CSc1ccccn1)N/N=C/c1cc([N+](=O)[O-])ccc1O`, the IC50 was 35.6 µM.

For `O=[N+]([O-])c1cccc2c(N3CCCC3)ccnc12`, the IC50 was 17.6 µM. As to `O=c1c2c([nH]c3ccccc13)CCCCC2`, the IC50 is 78.4 µM. As for `CCn1cc(C(=O)O)c(=O)c2cc(F)c(N3CCN(C(=S)Nc4ccccc4OC)CC3)cc21`, the IC50 was 6.7 µM. For `C#CCOCCOCCOCCNc1nc(N2CCN(C(=O)[C@H](CCCCN)n3cc([C@@H](N)CC(C)C)nn3)CC2)nc(N2CCN(C(=O)[C@H](Cc3cc4ccccc4[nH]3)n3cc([C@@H](N)Cc4ccc(O)cc4)nn3)CC2)n1` the value was 54.5 µM.

Take `Cc1nonc1C(=O)N/N=C/c1ccc(O)cc1O`: the IC50 was 29.7 µM. For `CCCCCOc1ccc(CSC2=NCCN2)cc1[N+](=O)[O-]`, the IC50 was 95.1 µM. For `C#CCOCCOCCOCCNc1nc(N2CCN(C(=O)CCCCCCCCCCNC(=O)Cn3cc(CCCCCN)nn3)CC2)nc(N2CCN(C(=O)CCCCCCCCCCNC(=O)[C@H]([C@@H](C)CC)n3cc(CCCCCN)nn3)CC2)n1`, the IC50 was 71.3 µM. To `COc1ccc(NC(=O)c2[nH]ncc2[N+](=O)[O-])cc1` belongs 40.3 µM; to `CCN1CCN(CCNC(=O)c2ccc3c(c2)N(Cc2ccc(F)cc2)C(=O)/C(=C/c2ccccc2)S3)CC1`, 125 µM; to `CN1CCN(C2Cc3cc(Cl)ccc3Sc3cc(F)ccc32)CC1` (configuration not stated), 37.5 µM. For `CNCC[C@H](Oc1cccc2ccccc12)c1cccs1` the value was 106 µM; for `COC(=O)C1C(O)C(C)C(O)C(C)(O)/C=C\C=C(/C)C(=O)Nc2c(C)c(OC(C)=O)c3c(c2O)C(=O)C(C)=C2OCOC(=C23)/C(C)=C/C(C)(O)C(O)C(C)C1O` (configuration not stated), 33.1 µM; for `O=c1cc(-c2ccccc2)cc(-c2ccccc2)n1O`, 51.7 µM. To `O=C(CC(=O)c1cc(Cl)ccc1O)c1ccccc1` belongs 128 µM.

With `Clc1ccc(C[n+]2cc(-c3ccc(Cl)cc3)n3c2CCC3)cc1`, the IC50 was 101 µM. `O=C(Nc1cccc(C2=NCCN2)c1)Nc1cccc(C2=NCCN2)c1`: the IC50 was 36.2 µM. `O=c1[nH]cc(N=Cc2cc([N+](=O)[O-])ccc2O)c(=O)[nH]1`: the IC50 is 39.7 µM.

For the molecule `CCOc1ccc(OCCSc2nc3ccccc3[nH]2)cc1`, the IC50 was 106 µM. Take `Cc1ccc(-c2c[n+](Cc3ccc(Cl)cc3)c3n2CCC3)cc1`: the IC50 was 90.3 µM. In the case of `CC1CCc2cc(F)cc3c(=O)c(C(=O)O)cn1c23` (configuration not stated), the IC50 is 9.57 µM.

`CCCCCCCCCCOC(=O)Cn1c(COc2ccc(C)cc2)[n+](C)c2ccccc21`: the IC50 was 16.6 µM.

For `CCOc1ccc(/C=N/NC(=O)c2[nH]ncc2Br)c(O)c1`, the IC50 was 65.4 µM.

In the case of `O=C(Oc1ccc[nH]c1=O)c1cc([N+](=O)[O-])cc([N+](=O)[O-])c1`, the IC50 was 46 µM.

For `O=C(CSc1nc2ccccc2[nH]1)Nc1ccc(F)c(F)c1`, the IC50 is 46.9 µM. On to `CN(Cc1ccccc1)CC(O)COc1ccc(CNCc2ccc(Cl)s2)cc1` (configuration not stated), for which the IC50 is 39.1 µM. As to `COc1ccc(/C=N/Nc2cc(C)nc3ccc(Br)cc23)cc1`, the IC50 is 46.2 µM. `CN(C)CCCN1c2ccccc2Sc2ccc(Cl)cc21`: the IC50 is 88.1 µM and 81.4 µM. `O=S(=O)(Nc1ncccn1)c1ccc(NC(=S)Nc2cccc(Cl)c2)cc1`: the IC50 was 95.3 µM.

Take `CN(C)CCCN(C(=O)CCc1ccccc1)c1nc2ccc(Br)cc2s1`: the IC50 was 110 µM. Take `S=C(Nc1cc(Cl)cc(Cl)c1)NC1CCN(Cc2ccccc2)CC1`: the IC50 is 36.7 µM. Take `O=C(CCN1CCN(c2ccccc2)CC1)N/N=C/c1ccc([N+](=O)[O-])o1`: the IC50 was 70.2 µM. Consider `O=C(C[n+]1cc(-c2ccc(Cl)cc2)n2c1CCC2)Nc1nc(-c2ccccc2)cs1`, for which the IC50 is 36.7 µM. To `COc1c(N2CCNC(C)C2)c(F)cc2c(=O)c(C(=O)O)cn(C3CC3)c12` (configuration not stated) belongs under 0.23 µM; to `CCCCn1c(NS(=O)(=O)c2ccccc2)c(S(=O)(=O)c2ccc(C)cc2)c2nc3ccccc3nc21`, 114 µM. For `CCOc1cc(C(c2c(C)[nH][nH]c2=O)c2c(C)[nH][nH]c2=O)cc([N+](=O)[O-])c1O`, the IC50 is 75.6 µM. Consider `Cn1c(-c2ccc3c(c2)OCO3)cnc1NCc1ccc(Cl)cc1`, for which the IC50 is 140 µM. With `CN1CCc2nc(SCC(=O)Nc3cccc(F)c3)c(C#N)c(-c3cccs3)c2C1`, the IC50 is 136 µM.

In the case of `Cc1cc(C)c(OCCCCNCc2ccccc2)c(Cl)c1`, the IC50 is 113 µM. Consider `C#CCOCCOCCOCCNc1nc(N2CCN(C(=O)[C@H](Cc3cc4ccccc4[nH]3)n3cc([C@@H](N)CC(C)C)nn3)CC2)nc(N2CCN(C(=O)[C@H](Cc3cc4ccccc4[nH]3)n3cc([C@@H](N)CC(C)C)nn3)CC2)n1`, for which the IC50 was 67.5 µM. Regarding `CCn1cc(C(=O)O)c(=O)c2cc(F)c(N3CCN(C(=S)NC(=O)c4ccccc4C)CC3)cc21`, the IC50 is 28.2 µM.

Consider `O=C1C=CC(=O)N1CCCCCCN1C(=O)C=CC1=O`, for which the IC50 was 112 µM. To `NC(=O)SCC(=O)Nc1ccc(Cl)c(Cl)c1` belongs 52.2 µM; to `C/C(Cn1nnc([N+](=O)[O-])n1)=N\NC(=O)c1ccccc1`, 149 µM. For `O=C(NCCCN1CCN(c2ccc(F)cc2)CC1)Nc1ccc([N+](=O)[O-])cc1` the value was 117 µM. For `CN1CCN(C(c2cccc(Cl)c2)c2ccccc2Cl)CC1` (configuration not stated), the IC50 is 107 µM. With `O=C(O)/C(=C\C(=O)c1ccccc1)Nc1ccccc1`, the IC50 was 20.5 µM. As for `NC1=NC2(CCCCC2)N=C(Nc2ccc(Br)cc2)N1`, the concentration for half-maximal inhibition (IC50) was 28.8 µM. On to `O=C(N/N=C/c1cc(Cl)ccc1O)c1cccnc1`, for which the IC50 was 28.2 µM. For `O=C(N/N=C/c1ccccc1O)C1SCCCS1` the value was 82.7 µM; for `OC1CNCc2cc3c(cc21)OCCO3` (configuration not stated), 80.8 µM; for `Cc1cc(NC(=O)c2ccccc2)sc1C`, 84.3 µM.

For the molecule `CC[C@@H](C)[C@H](CN[C@H](CNC)C(C)C)NC[C@@H](C)c1ccc(CC(C)C)cc1`, the IC50 was 61 µM. Turning to `O=C(C[n+]1cc(-c2ccccc2)n2c1CCC2)Nc1nc(-c2ccc(F)cc2)cs1`, the IC50 was 141 µM. For `OC1CCCN(Cc2ccc3ccc4cccc5ccc2c3c45)C1` (configuration not stated), the IC50 was 118 µM. Regarding `Cc1nc(N)nc(N)c1CCCc1ccc(Cl)c(Cl)c1`, the IC50 was 43.1 µM. Consider `Cc1cc(C)c2nc(C)cc(N/N=C/c3ccc(O)cc3)c2c1`, for which the IC50 was 49.7 µM. As to `CCn1cc(C(=O)O)c(=O)c2cc(F)c(N3CCN(C(=O)Nc4ccccc4)CC3)cc21`, the IC50 is 21.1 µM.

Consider `NC1CCN(c2c(F)cc3c(=O)c(C(=O)O)cn(C4CC4)c3c2Cl)C1` (configuration not stated), for which the IC50 is under 0.23 µM. To `NC[C@@H]1O[C@H](C23CC4CC(CC(C4)C2)C3)Cc2c1ccc(O)c2O` belongs 39.8 µM. Take `COc1cccc(/C=N/NC(=O)C(=O)N2CCCC2)c1O`: the IC50 was 101 µM. For `Nc1nc(N)c(Cc2ccc(Cl)cc2Cl)c(N)n1`, the IC50 is 103 µM.

As for `Cc1cc(NS(=O)(=O)c2ccc(NC(=S)NC(=O)c3cccnc3)cc2)no1`, the IC50 is 126 µM. To `Nc1ncncc1-c1ccc([N+](=O)[O-])cc1` belongs 67.4 µM. On to `COc1ccccc1CNCCc1ccc(F)cc1`, for which the IC50 is 36 µM.

Values taken from PubChem BioAssay AID1985 (Southern Research Specialized Biocontainment Screening …, 2009).
